Test results: ChEMBL document CHEMBL1156785, “Discovery of 4-[(2S)-2-{[4-(4-chlorophenoxy)phenoxy]methyl}-1-pyrrolidinyl]butanoic acid (DG-051) as a novel leukotriene A4 hydrolase inhibitor of leukotriene B4 biosynthesis” (J Med Chem, 2010)
One block for each compound: values may come before it.

Experiments:
[1] = Volume of distribution in Sprague-Dawley rat at 10 mg/kg, iv; type: ADME, organism-based; design: dose 10 mg/kg, route intravenous; settings: in vivo
Rattus norvegicus = experiment: AUC (0 to infinity) in Sprague-Dawley rat at 10 mg/kg, iv; type: ADME, organism-based, Plasma; design: time infinity, dose 10 mg/kg, route intravenous; settings: in vivo
[2] = Metabolic stability in rat liver microsomes assessed as compound remaining after 30 mins; type: ADME, Microsome; settings: read-out: Stability
[3] = Cmax in Sprague-Dawley rat at 10 mg/kg, iv; type: ADME, organism-based; design: dose 10 mg/kg, route intravenous; settings: in vivo
[4] = Half life in Sprague-Dawley rat at 10 mg/kg, po; type: ADME, organism-based; design: dose 10 mg/kg, route oral; settings: in vivo
[5] = AUC (0 to infinity) in mouse at 10 mg/kg, po; type: ADME, organism-based; design: time infinity, dose 10 mg/kg, route oral; settings: plasma
[6] = Cmax in mouse at 10 mg/kg, po; type: ADME, organism-based; design: dose 10 mg/kg, route oral; settings: in vivo
[7] = Volume of distribution in mouse at 10 mg/kg, iv; type: ADME, organism-based; design: dose 10 mg/kg, route intravenous; settings: in vivo
[8] = Clearance in mouse at 10 mg/kg, iv; type: ADME, organism-based; design: dose 10 mg/kg, route intravenous; settings: in vivo
[9] = target: T1, Leukotriene A-4 hydrolase (Homo sapiens, UniProt P09960)
T1 sequence (P09960 whole entry): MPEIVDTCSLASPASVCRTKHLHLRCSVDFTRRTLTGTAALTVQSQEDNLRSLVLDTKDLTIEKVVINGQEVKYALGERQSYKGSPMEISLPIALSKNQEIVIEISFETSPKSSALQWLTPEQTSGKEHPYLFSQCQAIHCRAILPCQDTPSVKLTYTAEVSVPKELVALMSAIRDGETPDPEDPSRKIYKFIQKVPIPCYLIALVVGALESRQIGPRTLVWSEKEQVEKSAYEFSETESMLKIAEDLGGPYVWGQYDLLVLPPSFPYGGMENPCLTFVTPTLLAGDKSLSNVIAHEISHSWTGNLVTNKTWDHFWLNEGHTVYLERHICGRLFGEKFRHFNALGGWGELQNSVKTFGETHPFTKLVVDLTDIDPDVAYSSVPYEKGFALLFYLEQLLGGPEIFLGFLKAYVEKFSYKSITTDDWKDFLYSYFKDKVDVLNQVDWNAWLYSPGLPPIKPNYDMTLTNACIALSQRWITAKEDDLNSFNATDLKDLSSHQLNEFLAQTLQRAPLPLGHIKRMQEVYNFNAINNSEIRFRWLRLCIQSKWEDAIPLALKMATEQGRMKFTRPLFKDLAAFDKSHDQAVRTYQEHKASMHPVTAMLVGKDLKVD
Description: Inhibition of human recombinant LTA4H hydrolysis assessed as inhibition of LTB4 formation by LC-MS/MS

[10] = Oral bioavailability in mouse at 10 mg/kg; type: ADME, organism-based; settings: in vivo
[11] = target: T1, Leukotriene A-4 hydrolase; remark: listed apart in the source
Description: Inhibition of human LTA4H hydrolysis assessed as inhibition of Ca2+ ionophore-stimulated LTB4 formation in human whole blood by ELISA

[12] = Half life in mouse at 10 mg/kg, po; type: ADME, organism-based; design: dose 10 mg/kg, route oral; settings: in vivo
[13] = target: Glutamyl aminopeptidase (Homo sapiens) (UniProt Q07075); experiment: Inhibition of APA at 10 uM
Glutamyl aminopeptidase (Homo sapiens), sequence (Q07075 whole entry): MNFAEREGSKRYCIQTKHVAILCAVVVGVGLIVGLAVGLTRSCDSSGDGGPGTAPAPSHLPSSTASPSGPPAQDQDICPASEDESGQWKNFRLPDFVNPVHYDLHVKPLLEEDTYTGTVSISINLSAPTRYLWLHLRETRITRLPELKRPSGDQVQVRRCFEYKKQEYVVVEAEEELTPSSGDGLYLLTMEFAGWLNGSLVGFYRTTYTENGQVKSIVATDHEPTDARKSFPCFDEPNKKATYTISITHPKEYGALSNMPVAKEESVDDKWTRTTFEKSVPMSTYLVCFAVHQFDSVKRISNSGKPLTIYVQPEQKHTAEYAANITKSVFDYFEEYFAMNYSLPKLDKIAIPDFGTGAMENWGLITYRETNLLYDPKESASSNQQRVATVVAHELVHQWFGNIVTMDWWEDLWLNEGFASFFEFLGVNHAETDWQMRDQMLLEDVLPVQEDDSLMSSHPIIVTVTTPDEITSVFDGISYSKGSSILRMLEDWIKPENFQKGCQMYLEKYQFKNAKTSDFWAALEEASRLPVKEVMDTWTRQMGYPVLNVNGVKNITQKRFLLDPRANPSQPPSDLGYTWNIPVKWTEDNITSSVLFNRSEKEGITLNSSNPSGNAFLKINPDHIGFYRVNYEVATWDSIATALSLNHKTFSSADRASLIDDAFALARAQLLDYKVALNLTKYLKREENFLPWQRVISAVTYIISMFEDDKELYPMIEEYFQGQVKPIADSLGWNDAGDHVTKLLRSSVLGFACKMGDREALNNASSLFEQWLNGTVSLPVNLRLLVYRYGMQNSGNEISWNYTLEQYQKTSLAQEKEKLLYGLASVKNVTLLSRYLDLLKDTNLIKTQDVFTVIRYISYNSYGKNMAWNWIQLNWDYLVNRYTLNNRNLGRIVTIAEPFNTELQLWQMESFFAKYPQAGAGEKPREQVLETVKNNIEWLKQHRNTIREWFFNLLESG

[14] = Clearance in Sprague-Dawley rat at 10 mg/kg, iv; type: ADME, organism-based; design: dose 10 mg/kg, route intravenous; settings: in vivo
[15] = Clearance in monkey at 10 mg/kg, iv; type: ADME, organism-based, Macaca mulatta; design: dose 10 mg/kg, route intravenous; settings: rhesus monkey, in vivo
[16] = Volume of distribution in monkey at 10 mg/kg, iv; type: ADME, organism-based, Macaca mulatta; design: dose 10 mg/kg, route intravenous; settings: rhesus monkey, in vivo
[17] = target: Xaa-Pro aminopeptidase 1 (Homo sapiens) (UniProt Q9NQW7); experiment: Inhibition of APP1 at 10 uM
Cytochrome P450 2D6 = Cytochrome P450 2D6 (Homo sapiens, UniProt P10635); experiment: Inhibition of CYP2D6; type: ADME
[18] = AUC (0 to infinity) in dog at 10 mg/kg, po; type: ADME, organism-based, Canis lupus familiaris; design: time infinity, dose 10 mg/kg, route oral; settings: plasma
CYP2C19 = CYP2C19 (Homo sapiens, UniProt P33261); experiment: Inhibition of human CYP2C19 at 10 uM; type: ADME
[19] = Cmax in dog at 10 mg/kg, po; type: ADME, organism-based, Canis lupus familiaris; design: dose 10 mg/kg, route oral; settings: in vivo
CYP1A2 = target: T2, CYP1A2 (Homo sapiens, UniProt P05177); experiment: Inhibition of human CYP1A2 at 10 uM; type: ADME
T2 sequence (P05177 whole entry): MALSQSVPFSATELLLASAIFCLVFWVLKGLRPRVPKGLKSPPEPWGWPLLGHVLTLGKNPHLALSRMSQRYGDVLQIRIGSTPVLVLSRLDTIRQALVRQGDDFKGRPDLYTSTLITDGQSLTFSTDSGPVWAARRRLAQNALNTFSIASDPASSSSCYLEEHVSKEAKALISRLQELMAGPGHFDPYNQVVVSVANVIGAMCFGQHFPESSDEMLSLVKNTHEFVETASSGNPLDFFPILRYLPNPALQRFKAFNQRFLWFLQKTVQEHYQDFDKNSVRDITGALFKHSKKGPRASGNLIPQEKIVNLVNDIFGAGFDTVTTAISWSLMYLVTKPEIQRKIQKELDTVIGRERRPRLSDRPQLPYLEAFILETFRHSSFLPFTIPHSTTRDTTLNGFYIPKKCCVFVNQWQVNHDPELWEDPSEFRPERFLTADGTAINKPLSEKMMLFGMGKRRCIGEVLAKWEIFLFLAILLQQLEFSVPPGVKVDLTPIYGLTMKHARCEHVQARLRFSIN

[20] = target: Voltage-gated inwardly rectifying potassium channel KCNH2 (Homo sapiens, UniProt Q12809); experiment: Inhibition of human ERG channel
Voltage-gated inwardly rectifying potassium channel KCNH2, sequence (Q12809 whole entry): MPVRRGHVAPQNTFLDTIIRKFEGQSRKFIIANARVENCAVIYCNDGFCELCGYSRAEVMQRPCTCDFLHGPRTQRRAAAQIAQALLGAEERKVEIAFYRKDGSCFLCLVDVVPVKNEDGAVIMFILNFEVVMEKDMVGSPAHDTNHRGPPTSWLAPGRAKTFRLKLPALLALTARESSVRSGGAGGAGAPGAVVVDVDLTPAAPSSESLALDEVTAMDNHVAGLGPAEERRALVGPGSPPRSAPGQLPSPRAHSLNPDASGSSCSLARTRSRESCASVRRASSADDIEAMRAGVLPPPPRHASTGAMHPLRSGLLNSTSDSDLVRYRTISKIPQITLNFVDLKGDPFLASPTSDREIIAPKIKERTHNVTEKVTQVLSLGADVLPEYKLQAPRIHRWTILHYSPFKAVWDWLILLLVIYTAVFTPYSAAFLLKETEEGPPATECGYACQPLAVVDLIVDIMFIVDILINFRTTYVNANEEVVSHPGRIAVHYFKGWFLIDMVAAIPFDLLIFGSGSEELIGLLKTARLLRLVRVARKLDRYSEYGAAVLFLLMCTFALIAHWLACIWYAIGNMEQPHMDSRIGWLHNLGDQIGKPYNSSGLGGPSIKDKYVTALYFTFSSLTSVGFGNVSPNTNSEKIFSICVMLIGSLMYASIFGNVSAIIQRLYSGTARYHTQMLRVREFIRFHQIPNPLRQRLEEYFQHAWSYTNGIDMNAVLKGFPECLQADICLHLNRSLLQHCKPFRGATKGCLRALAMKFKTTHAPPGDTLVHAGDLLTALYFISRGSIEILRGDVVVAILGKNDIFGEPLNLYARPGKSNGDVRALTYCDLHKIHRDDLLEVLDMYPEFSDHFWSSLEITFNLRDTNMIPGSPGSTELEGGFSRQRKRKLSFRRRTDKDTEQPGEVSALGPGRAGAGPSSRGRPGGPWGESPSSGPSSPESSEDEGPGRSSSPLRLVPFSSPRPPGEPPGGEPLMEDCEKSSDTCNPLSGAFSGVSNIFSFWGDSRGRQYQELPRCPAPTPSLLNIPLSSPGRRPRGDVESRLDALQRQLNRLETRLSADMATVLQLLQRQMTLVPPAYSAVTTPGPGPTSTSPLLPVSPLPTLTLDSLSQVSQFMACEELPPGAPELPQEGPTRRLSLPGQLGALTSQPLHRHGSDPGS

[21] = AUC (0 to infinity) in monkey at 10 mg/kg, po; type: ADME, organism-based, Macaca mulatta; design: time infinity, dose 10 mg/kg, route oral; settings: rhesus monkey, plasma
[22] = Oral bioavailability in Sprague-Dawley rat at 10 mg/kg; type: ADME, organism-based; settings: in vivo
[23] = Clearance in dog at 10 mg/kg, iv; type: ADME, organism-based, Canis lupus familiaris; design: dose 10 mg/kg, route intravenous; settings: in vivo
[24] = Half life in monkey at 10 mg/kg, po; type: ADME, organism-based, Macaca mulatta; design: dose 10 mg/kg, route oral; settings: rhesus monkey, in vivo
[25] = target: Aminopeptidase N (Homo sapiens) (UniProt P15144); experiment: Inhibition of APN at 10 uM
Rhesus monkey = experiment: Oral bioavailability in monkey at 10 mg/kg; type: ADME, organism-based, Macaca mulatta; settings: in vivo
[26] = Cmax in monkey at 10 mg/kg, po; type: ADME, organism-based, Macaca mulatta; design: dose 10 mg/kg, route oral; settings: rhesus monkey, in vivo
[27] = Cmax in Sprague-Dawley rat at 10 mg/kg, po; type: ADME, organism-based; design: dose 10 mg/kg, route oral; settings: in vivo
CYP2C9 = CYP2C9 (Homo sapiens, UniProt P11712); experiment: Inhibition of human CYP2C9 at 10 uM; type: ADME
CYP2C9, sequence (P11712 whole entry): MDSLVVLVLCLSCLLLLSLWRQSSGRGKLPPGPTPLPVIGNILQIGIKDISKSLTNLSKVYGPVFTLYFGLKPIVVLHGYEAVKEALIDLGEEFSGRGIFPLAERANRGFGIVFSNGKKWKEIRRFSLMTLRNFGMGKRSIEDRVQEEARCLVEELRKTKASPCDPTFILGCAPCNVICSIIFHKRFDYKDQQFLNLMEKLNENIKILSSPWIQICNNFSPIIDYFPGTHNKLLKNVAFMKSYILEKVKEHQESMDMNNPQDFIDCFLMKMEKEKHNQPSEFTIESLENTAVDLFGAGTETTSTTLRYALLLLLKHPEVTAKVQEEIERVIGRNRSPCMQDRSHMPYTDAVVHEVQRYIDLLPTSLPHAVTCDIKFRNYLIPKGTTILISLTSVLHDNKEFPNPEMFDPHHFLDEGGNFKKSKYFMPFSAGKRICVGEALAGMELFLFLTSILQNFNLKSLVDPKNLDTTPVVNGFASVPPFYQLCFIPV

[28] = target: Endoplasmic reticulum aminopeptidase 2 (Homo sapiens) (UniProt Q6P179); experiment: Inhibition of LRAP at 10 uM
Endoplasmic reticulum aminopeptidase 2 (Homo sapiens), sequence (Q6P179 whole entry): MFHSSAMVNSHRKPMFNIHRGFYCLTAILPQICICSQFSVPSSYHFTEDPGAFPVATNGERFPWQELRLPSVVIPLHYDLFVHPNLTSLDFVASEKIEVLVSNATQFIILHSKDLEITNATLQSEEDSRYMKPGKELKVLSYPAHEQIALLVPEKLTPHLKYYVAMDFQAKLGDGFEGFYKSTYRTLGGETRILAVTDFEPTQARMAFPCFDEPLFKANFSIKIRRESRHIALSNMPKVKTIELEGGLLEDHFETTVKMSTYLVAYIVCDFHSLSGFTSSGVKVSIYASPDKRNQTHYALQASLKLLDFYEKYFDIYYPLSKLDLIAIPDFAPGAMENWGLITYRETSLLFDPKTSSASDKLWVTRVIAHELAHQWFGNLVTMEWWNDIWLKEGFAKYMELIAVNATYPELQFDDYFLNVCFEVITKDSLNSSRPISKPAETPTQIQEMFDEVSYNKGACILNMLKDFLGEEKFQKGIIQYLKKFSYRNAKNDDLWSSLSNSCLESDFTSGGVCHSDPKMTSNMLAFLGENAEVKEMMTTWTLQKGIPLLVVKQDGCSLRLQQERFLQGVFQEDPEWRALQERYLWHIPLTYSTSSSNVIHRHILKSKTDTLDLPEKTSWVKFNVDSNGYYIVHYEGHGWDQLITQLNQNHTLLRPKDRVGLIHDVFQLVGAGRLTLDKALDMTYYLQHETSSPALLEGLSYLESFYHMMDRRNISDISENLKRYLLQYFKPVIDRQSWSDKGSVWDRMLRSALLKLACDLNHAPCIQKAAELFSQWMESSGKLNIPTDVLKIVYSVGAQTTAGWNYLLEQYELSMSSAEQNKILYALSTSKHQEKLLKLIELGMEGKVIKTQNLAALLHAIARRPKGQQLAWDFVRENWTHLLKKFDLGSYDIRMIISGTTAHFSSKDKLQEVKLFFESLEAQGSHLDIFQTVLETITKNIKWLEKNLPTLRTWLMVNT

[29] = Volume of distribution in dog at 10 mg/kg, iv; type: ADME, organism-based, Canis lupus familiaris; design: dose 10 mg/kg, route intravenous; settings: in vivo
[30] = Aqueous solubility at pH 6.18; type: physicochemical; settings: buffer
[31] = Half life in dog at 10 mg/kg, po; type: ADME, organism-based, Canis lupus familiaris; design: dose 10 mg/kg, route oral; settings: in vivo
[32] = AUC (0 to infinity) in Sprague-Dawley rat at 10 mg/kg, po; type: ADME, organism-based; design: time infinity, dose 10 mg/kg, route oral; settings: plasma
[33] = target: Endoplasmic reticulum aminopeptidase 1 (Homo sapiens) (UniProt Q9NZ08); experiment: Inhibition of PILS at 10 uM
Endoplasmic reticulum aminopeptidase 1 (Homo sapiens), sequence (Q9NZ08 whole entry): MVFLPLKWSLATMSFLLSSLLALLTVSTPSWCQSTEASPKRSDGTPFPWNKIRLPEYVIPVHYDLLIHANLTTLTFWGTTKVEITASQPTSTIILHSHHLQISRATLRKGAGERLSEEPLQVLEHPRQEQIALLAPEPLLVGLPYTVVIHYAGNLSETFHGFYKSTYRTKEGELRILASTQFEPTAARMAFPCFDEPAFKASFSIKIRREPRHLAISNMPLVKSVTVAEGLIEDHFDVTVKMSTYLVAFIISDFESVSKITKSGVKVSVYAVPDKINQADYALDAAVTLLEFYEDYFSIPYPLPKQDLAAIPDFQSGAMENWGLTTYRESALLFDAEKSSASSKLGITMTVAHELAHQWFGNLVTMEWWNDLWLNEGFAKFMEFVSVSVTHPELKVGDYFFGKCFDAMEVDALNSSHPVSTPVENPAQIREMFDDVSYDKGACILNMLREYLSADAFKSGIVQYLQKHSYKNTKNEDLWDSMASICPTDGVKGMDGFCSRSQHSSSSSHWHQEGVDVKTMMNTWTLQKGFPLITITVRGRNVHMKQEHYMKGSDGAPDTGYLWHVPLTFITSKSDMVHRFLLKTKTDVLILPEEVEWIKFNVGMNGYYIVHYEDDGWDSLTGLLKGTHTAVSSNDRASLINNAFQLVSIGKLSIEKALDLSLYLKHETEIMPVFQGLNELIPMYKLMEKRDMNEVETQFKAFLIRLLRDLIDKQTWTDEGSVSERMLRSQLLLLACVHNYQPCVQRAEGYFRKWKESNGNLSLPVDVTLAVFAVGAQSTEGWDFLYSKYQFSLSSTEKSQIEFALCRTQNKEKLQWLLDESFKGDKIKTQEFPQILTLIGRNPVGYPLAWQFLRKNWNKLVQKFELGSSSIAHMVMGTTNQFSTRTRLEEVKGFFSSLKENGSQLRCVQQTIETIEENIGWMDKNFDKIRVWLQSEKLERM

CYP3A4 = CYP3A4 (Homo sapiens, UniProt P08684); experiment: Inhibition of human CYP3A4 at 10 uM; type: ADME
CYP3A4, sequence (P08684 whole entry): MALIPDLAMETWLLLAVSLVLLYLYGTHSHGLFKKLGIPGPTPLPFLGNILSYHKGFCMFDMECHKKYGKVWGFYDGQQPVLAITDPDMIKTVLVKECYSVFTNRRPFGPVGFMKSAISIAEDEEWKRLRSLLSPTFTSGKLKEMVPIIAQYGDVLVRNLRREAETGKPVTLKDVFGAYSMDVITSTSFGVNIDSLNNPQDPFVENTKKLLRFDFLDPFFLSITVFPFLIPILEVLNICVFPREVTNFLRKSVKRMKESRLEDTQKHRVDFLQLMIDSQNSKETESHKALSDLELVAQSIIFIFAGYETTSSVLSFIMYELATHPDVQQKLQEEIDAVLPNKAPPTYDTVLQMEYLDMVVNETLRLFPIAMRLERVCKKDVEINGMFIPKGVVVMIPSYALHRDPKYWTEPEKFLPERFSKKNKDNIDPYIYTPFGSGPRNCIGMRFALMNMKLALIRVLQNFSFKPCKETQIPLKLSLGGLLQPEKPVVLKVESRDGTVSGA

Structure (SMILES): c1ccc(Cc2ccc(OC[C@H]3CCCN3)cc2)cc1
Vd [1]: 6.12 L/kg | AUC (Rattus norvegicus): 471 ng·h/mL | remaining at 0.5 h [2]: 10.5% | Cmax [3]: 1.46 µM | half-life [4]: 0.67 h

AUC(0-inf) [5]: 2360 ng·h/mL | Cmax [6]: 1.02 µM | Vd [7]: 6.32 L/kg | remaining at 0.5 h [2]: 86.6% | clearance [8]: 61 mL/min/kg | IC50 [9]: 30 nM | bioavailability [10]: 85% | IC50 [11]: 533 nM | half-life [12]: 3.59 h
Structure (SMILES): Clc1ccc(Oc2ccc(OC[C@H]3CCCN3)cc2)cc1

Structure (SMILES): Ic1ccc(Oc2ccc(N3CCNCC3)cc2)cc1
IC50 [9]: 340 nM

Structure (SMILES): c1ccc(Cc2ccc(OCCc3ccncc3)cc2)cc1
IC50 [9]: 8700 nM

inhibition [13]: > 50% | clearance [14]: 11 mL/min/kg | clearance [15]: 6 mL/min/kg | Vd [16]: 2.07 L/kg | inhibition [17]: > 50% | inhibition (INH) (Cytochrome P450 2D6): < 50% | AUC(0-inf) [18]: 56000 ng·h/mL | Vd [1]: 2.35 L/kg | inhibition at 10 µM (CYP2C19): < 50% | Cmax [19]: 19.3 µM | inhibition at 10 µM (CYP1A2): < 50% | AUC(0-inf) [21]: 52400 ng·h/mL | bioavailability [22]: 87% | clearance [23]: 7.6 mL/min/kg | half-life [24]: 5.54 h | inhibition [25]: > 50% | F (Rhesus monkey): 186% | remaining at 0.5 h [2]: 95.2% | Cmax [26]: 18.9 µM | Cmax [27]: 4.8 µM | inhibition at 10 µM (CYP2C9): < 50% | inhibition [28]: > 50% | half-life [4]: 2.57 h | Vd [29]: 1.56 L/kg | solubility [30]: > 30 mg/mL | half-life [31]: 4.02 h | AUC(0-inf) [32]: 13000 ng·h/mL | inhibition [33]: > 50% | inhibition at 10 µM (CYP3A4): < 50%
Structure (SMILES): O=C(O)CCCN1CCC[C@H]1COc1ccc(Oc2ccc(Cl)cc2)cc1
inhibition (INH) [20]: > 50%
